Results published in patent US9204653B2, “5-fluoro pyrimidine derivatives” (DOW AGROSCIENCES LLC, priority 2008, dated 2015).
Read-outs that look alike come from different tables or passages of the source.

Experiments:
[1] = system: Mycosphaerella graminicola; Anamorph: Septoria tritici; Bayer Code SEPTTR; experiment: Leaf blotch of wheat, foliar fungicide treatment, one day protectant (1DP) or three day curative (3DC); type: in vivo, Septoria tritici on wheat plants (variety Yuma); conditions: Zymoseptoria tritici
[2] = system: Venturia inaequalis; Bayer Code VENTIN; experiment: Apple scab; type: in vivo; conditions: 24 h, % disease control rating, one day protectant; for pest or weed control at 25 ppm: read-out: VENTIN 1 DP 25 ppm; for pest or weed control at 75 ppm: read-out: VENTIN 1 DP 75 ppm
[3] = 24 h, one day protectant (1DP), 25 ppm, percent disease control rating, read-out: SETTTR 1DP 25 ppm
[4] = 24 h, one day protectant (1DP), percent disease control rating, read-out: SEPTTR 1DP 100 ppm
[5] = 72 h, three day curative (3DC), 25 ppm, percent disease control rating, read-out: SEPTTR 3DC 25 ppm
[6] = 72 h, three day curative (3DC), percent disease control rating, read-out: SEPTTR 3DC 100 ppm
[7] = 24 h, one day protectant (1DP), 25 ppm, rating of percent disease control, read-out: SETTTR 1DP 25 ppm
[8] = 24 h, one day protectant (1DP), rating of percent disease control, read-out: SEPTTR 1DP 100 ppm
[9] = 72 h, three day curative (3DC), 25 ppm, rating of percent disease control, read-out: SEPTTR 3DC 25 ppm
[10] = 72 h, three day curative (3DC), rating of percent disease control, read-out: SEPTTR 3DC 100 ppm
[11] = 24 h, one day protectant (1DP), 25 ppm (first 1DP column), percent control rating, read-out: SETTTR 1DP 25 ppm
[12] = 24 h, one day protectant (1DP), 25 ppm as printed (second 1DP column), percent control rating, read-out: SETTTR 1DP 25 ppm
[13] = 72 h, three day curative (3DC), 25 ppm, percent control rating, read-out: SEPTTR 3DC 25 ppm
[14] = 72 h, three day curative (3DC), percent control rating, read-out: SEPTTR 3DC 100 ppm
[15] = 24 h, one day protectant (1DP), 25 ppm (first 1DP column), percent disease control rating, read-out: SETTTR 1DP 25 ppm
[16] = 24 h, one day protectant (1DP), 25 ppm as printed (second 1DP column), percent disease control rating, read-out: SETTTR 1DP 25 ppm

Row | SMILES | pest or weed control at 25 ppm [2] | pest or weed control at 75 ppm [2] | pest or weed control at 25 ppm [1, 11] | pest or weed control at 25 ppm [1, 12] | pest or weed control at 25 ppm [1, 13] | pest or weed control at 100 ppm [1, 14] | also measured
1 | CC(Oc1ncc(F)c(N)n1)c1ccc(F)cc1 (stereo not shown) [Compound 3, 5-Fluoro-2-[1-(4-fluorophenyl)ethoxy]pyrimidin-4-ylamine] | 0 to 25% | 76 to 100% |  |  |  |  | pest or weed control at 25 ppm [1, 3]: 76 to 100%; pest or weed control at 100 ppm [1, 4]: 76 to 100%; pest or weed control at 25 ppm [1, 5]: 76 to 100%; pest or weed control at 100 ppm [1, 6]: 76 to 100%
2 | Nc1nc(OCc2cccs2)ncc1F [Compound 5, 5-Fluoro-2-(thiophen-2-ylmethoxy)-pyrimidin-4-ylamine] | 76 to 100% | 76 to 100% |  |  |  |  | pest or weed control at 25 ppm [1, 3]: 76 to 100%; pest or weed control at 100 ppm [1, 4]: 76 to 100%; pest or weed control at 25 ppm [1, 5]: 76 to 100%; pest or weed control at 100 ppm [1, 6]: 76 to 100%
3 | CN(C)/C=N/c1nc(OCc2ccc(F)cc2)ncc1F [Compound 20, N-[5-Fluoro-2-(4-fluorobenzyloxy)pyrimidin-4-yl]-N,N dimethyl-formamidine] | 51 to 75% | 76 to 100% |  |  |  |  | pest or weed control at 25 ppm [1, 3]: 76 to 100%; pest or weed control at 100 ppm [1, 4]: 76 to 100%; pest or weed control at 25 ppm [1, 5]: 76 to 100%; pest or weed control at 100 ppm [1, 6]: 76 to 100%
4 | COc1cccc(COc2ncc(F)c(N)n2)c1 [Compound 35] | 76 to 100% | 76 to 100% |  |  |  |  | pest or weed control at 25 ppm [1, 3]: 76 to 100%; pest or weed control at 100 ppm [1, 4]: 76 to 100%; pest or weed control at 25 ppm [1, 5]: 76 to 100%; pest or weed control at 100 ppm [1, 6]: 76 to 100%
5 | Nc1nc(OCc2ccccc2)ncc1F [Compound 46] | 76 to 100% | 76 to 100% |  |  |  |  | pest or weed control at 25 ppm [1, 3]: 76 to 100%; pest or weed control at 100 ppm [1, 4]: 76 to 100%; pest or weed control at 25 ppm [1, 5]: 76 to 100%; pest or weed control at 100 ppm [1, 6]: 76 to 100%
6 | CN(C)/C=N/c1nc(OCc2ccccc2)ncc1F [Compound 209] | 51 to 75% | 76 to 100% |  |  |  |  | pest or weed control at 25 ppm [1, 7]: 76 to 100%; pest or weed control at 100 ppm [1, 8]: 76 to 100%; pest or weed control at 25 ppm [1, 9]: 76 to 100%; pest or weed control at 100 ppm [1, 10]: 76 to 100%
7 | Nc1nc(OCc2cccc(F)c2)ncc1F [Compound 236] | 76 to 100% | 76 to 100% |  |  |  |  | pest or weed control at 25 ppm [1, 7]: 76 to 100%; pest or weed control at 100 ppm [1, 8]: 76 to 100%; pest or weed control at 25 ppm [1, 9]: 76 to 100%; pest or weed control at 100 ppm [1, 10]: 76 to 100%
8 | Cc1ccccc1C(C)Oc1ncc(F)c(N)n1 (stereo not shown) [Compound 313] | 26 to 50% | 51 to 75% |  |  |  |  | pest or weed control at 25 ppm [1, 7]: 76 to 100%; pest or weed control at 100 ppm [1, 8]: 76 to 100%; pest or weed control at 25 ppm [1, 9]: 76 to 100%; pest or weed control at 100 ppm [1, 10]: 76 to 100%
9 | Nc1nc(OCc2cc3ccccc3s2)ncc1F [Compound 345] | 51 to 75% | 76 to 100% |  |  |  |  | pest or weed control at 25 ppm [1, 7]: 76 to 100%; pest or weed control at 100 ppm [1, 8]: 76 to 100%; pest or weed control at 25 ppm [1, 9]: 76 to 100%; pest or weed control at 100 ppm [1, 10]: 76 to 100%
10 | Cc1cc(C)c(COc2ncc(F)c(/N=C/N(C)C)n2)c(C)c1 [Compound 347] | 76 to 100% | 26 to 50% |  |  |  |  | pest or weed control at 25 ppm [1, 7]: 76 to 100%; pest or weed control at 100 ppm [1, 8]: 76 to 100%; pest or weed control at 25 ppm [1, 9]: 76 to 100%; pest or weed control at 100 ppm [1, 10]: 76 to 100%
11 | Cc1ccc(COc2ncc(F)c(/N=C/N(C)C)n2)cc1 [Compound 469] | 51 to 75% | 76 to 100% |  |  |  |  | pest or weed control at 25 ppm [1, 7]: 76 to 100%; pest or weed control at 100 ppm [1, 8]: 76 to 100%; pest or weed control at 25 ppm [1, 9]: 76 to 100%; pest or weed control at 100 ppm [1, 10]: 76 to 100%
12 | Cc1cc(C)c(COc2ncc(F)c(N)n2)c(C)c1 [Compound 510] | 76 to 100% | 76 to 100% |  |  |  |  | pest or weed control at 25 ppm [1, 7]: 51 to 75%; pest or weed control at 100 ppm [1, 8]: 76 to 100%; pest or weed control at 25 ppm [1, 9]: 51 to 75%; pest or weed control at 100 ppm [1, 10]: 76 to 100%
13 | COc1ccc(COc2ncc(F)c(N)n2)cc1 [Compound 734] | 76 to 100% | 76 to 100% |  |  |  |  | pest or weed control at 25 ppm [1, 7]: 76 to 100%; pest or weed control at 100 ppm [1, 8]: 76 to 100%; pest or weed control at 25 ppm [1, 9]: 76 to 100%; pest or weed control at 100 ppm [1, 10]: 76 to 100%
14 | CC(C)(C)C(=O)OCOc1ncc(F)c(NC=O)n1 [Compound 1113] |  |  | 76 to 100% | 76 to 100% | 76 to 100% | 76 to 100% | 
15 | C/C(=N\Oc1ncc(F)c(N)n1)C(F)(F)F [Compound 1114] |  |  | 0 to 25% | 0 to 25% | 26 to 50% | 76 to 100% | 
16 | CCOCNc1nc(O)ncc1F [Compound 1115] |  |  | 26 to 50% | 76 to 100% | 26 to 50% | 76 to 100% | 
17 | Oc1ncc(F)c(N/N=C/c2ccccc2Cl)n1 [Compound 1118] |  |  | 0 to 25% | 0 to 25% | 0 to 25% | 0 to 25% | 
18 | CC(C)(C)C(=O)OCOc1ncc(F)c(N)n1 [Compound 1119] |  |  | 76 to 100% | 76 to 100% | 76 to 100% | 76 to 100% | 
19 | COc1ncc(F)c(NNC(=O)Cc2ccccc2)n1 [Compound 1120] |  |  | 0 to 25% | 0 to 25% | 0 to 25% | 0 to 25% | 
20 | COc1ncc(F)c(NNC(=O)c2ccc(Cl)cc2)n1 [Compound 1121] |  |  | 0 to 25% | 0 to 25% | 0 to 25% | 0 to 25% | 
21 | C=CCOc1ncc(F)c(NNC(=O)C=C(C)C)n1 [Compound 1123] |  |  | 0 to 25% | 0 to 25% | 0 to 25% | 0 to 25% | 
22 | C=CCOc1ncc(F)c(NNC(=O)c2ccncc2)n1 [Compound 1124] |  |  | 0 to 25% | 0 to 25% | 0 to 25% | 0 to 25% | 
23 | CC(=O)OCOc1ncc(F)c(NC=O)n1 [Compound 1125] |  |  | 76 to 100% | 76 to 100% | 76 to 100% | 76 to 100% | 
24 | O=CNc1nc(OCOC(=O)C2CCCC2)ncc1F [Compound 1126] |  |  | 76 to 100% | 76 to 100% | 76 to 100% | 76 to 100% | 
25 | CSCOc1ncc(F)c(/N=C/N(C)C)n1 [Compound 1127] |  |  | 76 to 100% | 76 to 100% | 76 to 100% | 76 to 100% | 
26 | COc1ncc(F)c(N(NC(=O)c2ccc(Cl)cc2)C(=O)c2ccc(Cl)cc2)n1 [Compound 1128] |  |  | 0 to 25% | 0 to 25% | 0 to 25% | 0 to 25% | 
27 | Cc1ccc(COc2ncc(F)c(NC#N)n2)cc1 [Compound 1130] |  |  |  |  |  |  | pest or weed control at 25 ppm [1, 15]: 0 to 25%; pest or weed control at 25 ppm [1, 16]: 0 to 25%; pest or weed control at 25 ppm [1, 5]: 26 to 50%; pest or weed control at 100 ppm [1, 6]: 0 to 25%
28 | CCN(/C=N/c1nc(O)ncc1F)CC [Compound 1131] |  |  |  |  |  |  | pest or weed control at 25 ppm [1, 15]: 76 to 100%; pest or weed control at 25 ppm [1, 16]: 76 to 100%; pest or weed control at 25 ppm [1, 5]: 76 to 100%; pest or weed control at 100 ppm [1, 6]: 76 to 100%
29 | O=S(=O)(Cc1ccccc1)Nc1nc(O)ncc1F [Compound 1132] |  |  |  |  |  |  | pest or weed control at 25 ppm [1, 15]: 51 to 75%; pest or weed control at 25 ppm [1, 16]: 51 to 75%; pest or weed control at 25 ppm [1, 5]: 76 to 100%; pest or weed control at 100 ppm [1, 6]: 76 to 100%
